Read-outs that look alike come from different tables or passages of the source. A value given as a limit tells only on which side of the number the result lay.

Data set [1] in a line: Cytotoxicity CC50 (Table 1). Format: cell-based, human. The note with it: human, MRC5 cells. As for the experimental part:
(§1) In the following tests, culture-cell strain MRC5 cells from the lungs of a human fetus or culture-cell strain Caco-2 cells from a human colon carcinoma were infected using the viruses. For both cell types, 2% FBS/MEM was used as a culture medium. The 2% FBS/MEM was prepared by adding 2% FBS (fetal bovine serum; made by Gibco) and L-glutamine (made by Wako) to MEM (Minimum Essential Medium; made by Nissui).
(§2) Moreover, from values of EC50 and CC50, SI (CC50/EC50) was calculated.

For data set [2], the system named is HCoV-OC43.
The subject of data set [3] is HCoV-229E.
Data set [4] has as its system HCoV-OC43. The experiment in a line: Cell-death suppression effect in coronavirus-infected cells (resazurin). The note with it: for EC50: read-out: HCoV-0C43 EC50 (50% cell death inhibition concentration). A general note: The colour change of resazurin is a common sign of viable cells or microbes.
Data set [5] concerns HCoV-229E. The description is as above. The note with it: for EC50: read-out: HCoV-229E EC50 (50% cell death inhibition concentration).
In data set [6] the test system is MRC5 cells. The experiment in a line: Cytotoxicity CC50 (Table 1). Format: cell-based, human. As for the experimental part:
as §1, §2

Data set [7] relates to YFV. The note with it: non-patent literature 5; read-out: antiviral activity (EC50) against YFV; cited from earlier work.
Data set [8] concerns HCoV-229E and HCoV-OC43. The experiment in a line: Library screening for suppression of cell death of cells infected by a human coronavirus. Format: cell-based. On the procedure: HCoV-229E (ATCC: VR-740) and HCoV-OC43 (ATCC: VR-1558) obtained from the ATCC were used as coronaviruses that routinely infect humans (human coronaviruses: HCoV).
as §1
HCoV-229E and HCoV-OC43 were used as the human coronavirus.

The test system of data set [9] is DENV1. The experiment in a line: microbe, parasite or virus in culture. Format: cell-based. The note with it: Dengue virus, DENV1, 120 h; BHK-21 cells, five days, MTT.
In data set [10] the test system is DENV2. The experiment in a line: microbe, parasite or virus in culture. Format: cell-based. The note with it: Dengue virus, DENV2, 96 h; BHK-21 cells, four days, MTT.
The subject of data set [11] is DENV3. Put plainly: microbe, parasite or virus in culture. Format: cell-based. The note with it: Dengue virus, DENV3, 120 h; BHK-21 cells, five days, MTT.
Data set [12] deals with DENV4. Put plainly: microbe, parasite or virus in culture. The note with it: Dengue virus, DENV4, 120 h; BHK-21 cells, five days, MTT. Format: cell-based.
Data set [13] deals with JEV. Put plainly: microbe, parasite or virus in culture. The note with it: Japanese encephalitis virus, 72 h; BHK-21 cells, three days, MTT. Format: cell-based.
The test system of data set [14] is WNV. The experiment in a line: microbe, parasite or virus in culture. The note with it: West Nile virus, 72 h; BHK-21 cells, three days, MTT. Format: cell-based.
In data set [15] the test system is SARS-CoV-2. Put plainly: Viral-RNA replication suppression in infected Caco-2 cells (qRT-PCR). The note with it: for EC50: Severe acute respiratory syndrome coronavirus 2, Caco-2, 48 h, read-out: SARS-CoV-2 EC50.
Data set [16] deals with ZIKV. The experiment in a line: microbe, parasite or virus in culture. Format: cell-based. The note with it: Zika virus, 72 h; BHK-21 cells, three days, MTT.
Data set [17] relates to Caco-2 cells. The note with it: for cytotoxicity by microscopic observation: Caco-2 cells infected with SARS-CoV-2; for concentration at which mild cytotoxicity, not to an extent of cell extinction, was observed: human.
In data set [18] the test system is SARS-CoV-2. Put plainly: Time-of-addition test in infected Caco-2 cells (viral RNA, TCID50 titration). Format: cell-based. The note with it: 1 μM, treatment timing Whole and Post-Entry.
Data set [19] relates to YFV. The experiment in a line: microbe, parasite or virus in culture. Format: cell-based. The note with it: Yellow fever virus, BHK-21, 72 h, read-out: EC50 YFV.

What is called CC50 is the concentration at which the toxic effect on the cells reaches its halfway point. `CCC(CC)COC(=O)[C@H](C)N[P@](=O)(OC[C@H]1O[C@@](C#N)(c2ccc3c(N)ncnn23)[C@H](O)[C@@H]1O)Oc1ccccc1` [GS-5734, remdesivir, reference compound]: the CC50 in data set [1] (read-out: CC50) was greater than 50000 nM. Also, the “HCoV-0C43 SI (CC50/EC50)” value in data set [2] is listed as greater than 221.1. In addition, the “HCoV-229E SI (CC50/EC50)” value in data set [3] was greater than 694.1. The EC50 in data set [4] (Betacoronavirus 1, OC43, 72 h) is 230 nM; in data set [5] (Human coronavirus 229E, 72 h) it was 72 nM.
`N#C[C@@]1(c2ccc3c(N)ncnn23)O[C@H](CO)[C@@H](O)[C@H]1O` [GS-441524, reference compound] had a CC50 in data set [6] greater than 50000 nM. For the same molecule, the EC50 is 11000 nM in data set [7]; 3700 nM in [4] (cultured three days, resazurin); 3100 nM in [5] (cultured three days, resazurin).
Consider `Nc1ncnc2c1c(/C=N\O)cn2[C@@H]1O[C@H](CO)[C@@H](O)[C@H]1O` [HUP1069, 5-formyltubercidin oxime], for which the “antiviral activity (suppressing cell death of infected cells) in library screening” value (“antiviral activity” below) in data set [8] is listed as “had antiviral activity”. The EC50 in data set [9] was greater than 16000 nM; in [10] it was less than 125 nM; in [11], greater than 16000 nM; in data set [12], greater than 16000 nM; in [13], less than 130 nM; in data set [14], less than 130 nM. Also, the EC50 in data set [15] is 200 nM; in data set [4] (Betacoronavirus 1, OC43, 72 h), 55 nM; in data set [5] (Human coronavirus 229E, 72 h), less than 78 nM. For the same molecule, in [2], the “HCoV-0C43 SI (CC50/EC50)” value was found to be 13. The “HCoV-229E SI (CC50/EC50)” value in data set [3] is greater than 9.5.
Take `Nc1c2ccn([C@@H]3O[C@H](CO)[C@@H](O)[C@H]3O)c2nc[n+]1[O-]` [HUP1077, tubercidin N-oxide]: the “antiviral activity” value in data set [8] (HCoV-229E and HCoV-OC43) is on record as “had antiviral activity”. The EC50 came to 3200 nM in data set [9]; 2300 nM in data set [11]; 2500 nM in [12]; 6900 nM in data set [13]; 6300 nM in data set [16]; 10700 nM in data set [14]. The EC50 in data set [15] was 3500 nM; in data set [5] (Human coronavirus 229E, 72 h), 4000 nM. The “cytotoxicity by microscopic observation” value in [17] is “concerns regarding cytotoxicity were low”. Also, in data set [4], the “HCoV-0C43 SI (CC50/EC50)” value is on record as 5.6. Moreover, the “HCoV-229E SI (CC50/EC50)” value in [5] was 6.1.
On to `Nc1ncnc2c1c([N+](=O)[O-])cn2[C@@H]1O[C@H](CO)[C@@H](O)[C@H]1O` [HUP1078, 5-nitrotubercidin], for which the “antiviral activity” value in [8] (HCoV-229E and HCoV-OC43) is given as “had antiviral activity”. For the same molecule, the CC50 in data set [1] turned out to be 330 nM. Besides, the EC50 is greater than 20000 nM in [10]; 100 nM in data set [15]; greater than 10000 nM in [4] (Betacoronavirus 1, OC43, 72 h); 2000 nM in data set [5] (Human coronavirus 229E, 72 h). Besides, in data set [17], the “concentration at which mild cytotoxicity, not to an extent of cell extinction, was observed” value is no less than 123 nM. Moreover, the “HCoV-229E SI (CC50/EC50)” value in [5] is on record as 0.17.
With `Nc1ncnc2c1c(CO)cn2[C@@H]1O[C@H](CO)[C@@H](O)[C@H]1O` [HUP1108, 5-hydroxymethyltubercidin], the “antiviral activity” value in data set [8] (HCoV-229E and HCoV-OC43) is listed as “had antiviral activity”. In data set [1], this molecule showed a CC50 greater than 50000 nM. The “relative viral-RNA amount” value in data set [18] (Caco-2 cells, 24 hours, FIG. 3) is on record as “reduced”. Moreover, the “viral titer (TCID50)” value in [18] (supernatant titrated on VeroE6/TMPRSS2 cells, FIG. 4) is given as “reduced”. Also, in data set [17], the “cytotoxicity by microscopic observation” value was “concerns regarding cytotoxicity were low”. The “concentration at which mild cytotoxicity, not to an extent of cell extinction, was observed” value in [17] was 10000 nM. In [15] (Caco-2 cells), the “concentration range in which virus proliferation was suppressed without cytotoxicity” value was “lower than 3.33 μM”. In addition, the EC50 in data set [15] stood at 570 nM; in [4] (Betacoronavirus 1, OC43, 72 h), 350 nM. For the same molecule, the “HCoV-0C43 SI (CC50/EC50)” value in data set [4] is greater than 141. In addition, the “HCoV-229E SI (CC50/EC50)” value in [5] is recorded as greater than 117.
For `N#Cc1cn([C@@H]2O[C@H](CO)[C@@H](O)[C@H]2O)c2ncnc(N)c12` [HUP1109, 5-cyanotubercidin], in [8], the “antiviral activity” value was “had antiviral activity”. In data set [1], this molecule registered a cytotoxic concentration (CC50) of 590 nM. Moreover, the EC50 in [10] was greater than 20000 nM; in data set [15], 200 nM; in [4] (Betacoronavirus 1, OC43, 72 h) it was greater than 10000 nM; in data set [5] (Human coronavirus 229E, 72 h) it was 2300 nM. In data set [3], the “HCoV-229E SI (CC50/EC50)” value was 0.26. The “cytotoxicity by microscopic observation” value in [17] is reported as “strong cytotoxicity”.
`Nc1ncnc2c1ccn2[C@@H]1O[C@H](CO)[C@@H](O)[C@H]1O` [HUP1136, tubercidin]: in data set [8], the “antiviral activity” value is reported as “had antiviral activity”. The EC50 is greater than 16000 nM in [9]; less than 125 nM in data set [11]; greater than 16000 nM in data set [12]; less than 130 nM in data set [13]; 150 nM in data set [19]; 200 nM in [14]. Further, the EC50 in [15] was 87 nM; in data set [5] (Human coronavirus 229E, 72 h), less than 78 nM. Besides, the “HCoV-0C43 SI (CC50/EC50)” value in data set [2] stood at 5.9. Further, in [3], the “HCoV-229E SI (CC50/EC50)” value was greater than 8.5. The “concentration at which mild cytotoxicity, not to an extent of cell extinction, was observed” value in [17] is no less than 1110 nM.

Source of the values: patent US20240131046A1, “ANTI-VIRAL AGENT” (NATIONAL UNIVERSITY CORPORATION HOKKAIDO UNIVERSITY, priority 2021, published 2024).
